Source: patent publication US20100166662A1, “MAGNETIC RESONANCE IMAGING METHOD USING VANADYL-BASED CONTRAST AGENTS” (The University of Chicago, priority 2006, published 2010)

Assays:
[1] = test system: 3T3-L1 adipocytes; assay: Uptake of 2-deoxy-D-[1-14C]glucose by 3T3-L1 adipocytes; type: cell-based
Procedure: The effect of vanadyl compounds on uptake of 2-deoxy-D-[1-^14C]glucose by 3T3-L1 adipocytes was measured using methods described in Makinen, M. W., et al., “Structural Origins of the Insulin-Mimetic Activity of Bis(acetylacetonato)oxovanadium(IV),” J. Biol. Chem. 277 (2002) pp. 12215-12220, which is incorporated herein by reference. Serum-starved, differentiated […] adipocytes were used in the metabolic assays. Cells were washed twice with phosphate-buffered isotonic saline at 37° C. and serum-starved for 2.5 hours in Krebs-Ringer buffer lacking bovine serum albumin or serum. The medium was removed, and cells were incubated for 30 minutes in buffer with different concentrations of VO^2+-based contrast agents with or without serum albumin (1 mM) prior to measuring glucose uptake rates. Glucose transport rates were measured by the addition of 20 μM 2-deoxy-D-[1-^14C] glucose.

[2] = Toxicity study in tumor-bearing nude mice (blood parameters, i-STAT); type: in vivo; details: 1 mmol/kg via tail vein, monitored over three days, mice bearing AT6.1 tumor
Procedure: Toxicity studies were performed with tumor-bearing nude mice weighing about 25-30 grams (n=5). An AT6.1 prostate tumor was implanted subcutaneously in the hind limb of the mouse. 1 mmol/kg of VO(acac)2 was administered through a catheter placed in the tail vein. The VO(acac)2 was dissolved in dimethyl sulfoxide and the resulting solution was diluted with saline. The final concentration of DMSO was about 5% by volume. The solution was about 10 mM VO(acac)2.
The pH, pCO2, HCO3^−, TCO2, serum O2, Na^+, K^+, Ca^2+, glucose, blood urea nitrogen (BUN), Hematocrit (Hct) and hemoglobin (Hb) were monitored using an i-STAT analyzer (East Windsor, N.J.) by taking ˜30 μL blood samples over a period of three days.

[3] = test system: AT6.1 prostate tumor; assay: In vivo MRI and contrast media dynamics in rats bearing AT6.1 tumors; design: species or system Copenhagen rat; details: rat
Procedure: MRI studies were performed using a 4.7 Tesla Bruker scanner with multi-slice echo-planner spectroscopic imaging (EPSI). The scanning parameters were as follows: TR/TE of 800/80 msec; field of view 40 mm; array size of 256×256; slice thickness of 0.5 mm; and, an average of 1.
First, high-resolution reference images were acquired by conventional spin echo and gradient echo pulse sequences using multiple slices. These reference images provided anatomic reference information and were used to accurately measure tumor volume. Then multi-slice (usually 3 slices) echo-planner spectroscopic imaging (EPSI) with repetition time (TR) of 800 msec and echo time (TE) of 80 msec were acquired. Acquisition of MRI data using high-resolution EPSI pulse sequence may also be used. These sequence images were acquired with spatial resolution of 200 micron in-plane in ˜500 micron slices and spectral resolution of 2 Hz. These images were acquired at the same spatial resolution as conventional images but provided increased sensitivity to contrast media effects.
A Dunning AT6.1 prostate tumor was implanted subcutaneously in the hind limb of a Copenhagen rat. The tumor was monitored and imaging began when the tumor reached a size of 5-10 mm. The VO^2+-based contrast agent was dissolved in dimethyl sulfoxide and the resulting solution was diluted with saline. The final concentration of DMSO was about 5% by volume. The solution was about 10 mM VO^2+-based contrast agent.
After 6 to 8 pre-contrast MR images were obtained as a reference, 0.15 mmol/kg of VO(acac)2 was injected through a catheter placed in the tail vein of the rat over 5 minutes. During MR imaging, the rats were anesthetized using isofluorane mixed with air and oxygen flowing through a mask. Exhaust gases were eliminated through an F-Air canister attached to the mask set up. Temperature was monitored continuously by a rectal thermometer and controlled with a warm water blanket. Heart rate, respiration rate, and blood pressure were monitored using an optical detector system from SA Instruments (Stony Brook, N.Y.). To minimize motion artifacts, rats were wrapped in co-flex and taped to a Plexiglass board. The leg was secured through the coil in a plastic tube and taped to the cradle.
Post-contrast EPSI scans were acquired for about 4 hours. Each EPSI scan took about 3.5 minutes. Images were used in which the intensity was proportional to the peak height of the water resonance in each voxel. […]
0.15 mmol/kg of VO(acac)2 was injected through a catheter placed in the tail vein of the rat over 5 minutes. […] Temperature was monitored continuously by a rectal thermometer and controlled with a warm water blanket. Heart rate, respiration rate, and blood pressure were monitored using an optical detector system from SA Instruments (Stony Brook, N.Y.). […]

[4] = T1 relaxivity of the contrast agent in buffer; type: physicochemical; details: 0.01 M HEPES buffer pH 7.4 with 0.15 M NaCl; 4.7 Tesla
Procedure: The T1 relaxation times of VO(acac)2 in 0.01 M HEPES buffer at pH 7.4 with 0.15 M NaCl were determined. With the determined T1 values at different concentrations of VO(acac)2, the relaxivity was determined using equation 1,
where T1m is the measured T1 for VO(acac)2, T1w is the T1 for water, C is the concentration of the contrast agent, and r1 is the relaxivity. The relaxivity for VO(acac)2 of 2.5±0.2 mM^−1s^−1 is slightly lower but close to that of known contrast agents of gadolinium complexes of 4.3±0.2 mM^−1s^−1 at 4.7 Tesla. This means that VO(acac)2 can produce significant, easily detectable changes in MR image intensity.

[5] = test system: p-AKT; assay: Cell signaling study, Western blot of p-AKT in Caco-2 and HCA-7 cells; type: cell-based, human; details: 5 min; for level of p-AKT compared to controls: Caco-2 and HCA-7 cells
Procedure: (§1) HCA-7 and Caco-2 cells derived from human colonic adenocarcinomas obtained from the American Type Culture Collection, Manassas, Va. were cultured at 37° C. in a humidified atmosphere of 5% CO2-95% air in 6-well plates (250,000 cells/well/2 mL in 5% serum medium). When cells were ˜70-80% confluent, cells were transferred to serum-free media and kept overnight. A vanadyl compound was added to a well to a final concentration of 100, 250, or 500 μM and incubated for 5 minutes. In each 6-well plate, 2 wells were set as controls and 4 wells were set for one desired concentration of a vanadyl compounds. Cells were then homogenized in 2× Laemmli sodium dodecyl sulfate (SDS) buffer. Samples were boiled for 5 minutes at 100° C. and proteins quantified using the RC-DC protein assay (Bio-Rad). Western blotting was then carried out, briefly described as follows. SDS-treated samples (50 μg/lane) were separated by SDS-polyacrylamide gel electrophoresis (PAGE) on a 4-15% resolving gel. Pre-stained molecular weight markers were included in each gel. Gels were electroblotted to immobilon-P transfer membranes (Millipore Billerica, Mass.). Following blocking of non-specific antibody binding, the blots were exposed to rabbit polyclonal anti-pAKT (Cell Signaling Technology, Danvers, Mass.) or mouse monoclonal anti-pERK (Santa Cruz Biotechnology, Inc., Santa Cruz, Calif.) and developed with secondary antibody using standard methods. The blots were washed, and the p-AKT and p-ERK were detected in film and digitized for final quantification.
FIG. 3 illustrates two Western blots of p-AKT using Caco-2 (left panel) and HCA-7 cells (right panel) treated with VO(acac)2 in a concentration of 100, 250 or 500 μM (top, middle and bottom rows, respectively). Lane 1 is the control; lanes 2 and 3 are duplicates of cells exposed to VO(acac)2 a particular concentration of VO(acac)2. These blots were analyzed by […] on X-OMAT™ autoradiogram films using an enhanced chemiluminesence system.

[6] = test system: AT6.1 prostate tumors; assay: Vanadyl concentration in tumor and muscle tissue by atomic absorption spectroscopy; type: in vivo, nude mice; details: at 5 hours after about 0.15 mmol/kg i.v., mice
Procedure: AT6.1 prostate tumors were implanted subcutaneously in the hind limbs of nude mice. The tumors were monitored and allowed to grow to about 6-8 mm over a period of about 2 weeks. The VO^2+-based contrast agent was dissolved in dimethyl sulfoxide and the resulting solution was diluted with saline. The final concentration of DMSO was about 5% by volume. The solution was about 10 mM VO^2+-based contrast agent. VO(acac)2 was added slowly to the tail vein of each mouse using a syringe infusion pump (Harvard Apparatus, South Natick, Mass.). A total of 100 μL of solution were added in 5 minutes (flow rate=20 μL/minute) for a total dosage of about 0.15 mmol/kg. All mice were kept in a cage and monitored after injection. The mice were then sacrificed at various times. Tissue samples of the tumors and muscles were removed after a mouse was sacrificed. The tissue samples were weighed and then digested by wet digestion using H2O2 and HNO3. Atomic absorption measurements were carried out using Perkin Elmer AAnalyst 300 with an HGA 800 furnace. Control sets (n=3) were free of contrast agent. Measurements were based on standard curves of known vanadyl concentration with a correlation coefficient of 0.99820.

[7] = Solubility in aqueous solutions at physiological pH; type: physicochemical
Procedure: Bis(acetylamido)oxovanadium(IV) [VO(acac-NH2)2]. VO(acac-NH2)2 was synthesized according to the procedure described by Crans et al., “Bis(acetylamido)oxovanadium(IV) Complexes: Solid State and Solution Studies,” J. Chem. Soc. Dalton Trans. (2001) pp. 3337-3345. One equivalent of vanadyl sulfate was dissolved in water followed by the addition of 3-equivalents of acetoacetamide under constant stirring. A solution of 10% sodium bicarbonate was then added dropwise to raise the pH from 1.5 to 3.6 in order to form a suspension. A bluish precipitate was obtained after allowing the solution to stand for one day at 4° C. The precipitate was filtered off, washed with a small amount of chloroform, and dried under vacuum.
Bis(acetylacetanato-bisNH2)oxovanadium(IV) [VO(acac-(NH2)2)2]. VO(acac-(NH2)2)2 is synthesized as follows. One equivalent of vanadyl sulfate is dissolved in water followed by the addition of 3 equivalents of malonamide under constant stirring. A solution of 10% sodium bicarbonate is then added dropwise to raise the pH in order to form a suspension. A bluish precipitate is obtained after standing the solution for one day at 4° C. The precipitate is filtered off, washed with a small amount of chloroform, and dried under vacuum.

[8] = test system: p-ERK; assay: Cell signaling study, Western blot of p-ERK in Caco-2 and HCA-7 cells; type: cell-based, human; details: 100, 250 or 500 μM, 5 min
Procedure: as §1, with “Following blocking of non-specific antibody binding, the blots were exposed to rabbit polyclonal anti-pAKT (Cell Signaling Technology, Danvers, Mass.) or mouse monoclonal anti-pERK (Santa Cruz Biotechnology, Inc., Santa Cruz, Calif.) and developed with secondary antibody using standard methods.” left out

[9] = 0.15 mmol/kg i.v. over 5 minutes, AT6.1 tumor

In the case of “Bis(acetylacetonato)oxovanadium(IV) [VO(acac)2]”, the uptake of glucose ([1]; in the presence of equimolar concentrations of serum albumin, 30 min incubation) is reported as “maximally enhanced”, the “blood pH, pCO2, HCO3−, TCO2, serum O2, Na+, K+, Ca2+, glucose, BUN, Hct, Hb” value [2] is reported as “fell within the normal range” and the “MR signal enhancement in tumor regions, often as high as” value [3, 9] is reported as at most 100%. For the same compound, the “MR signal enhancement in tumor regions, typical” value [3, 9] was “greater than 50%”, the “enhancement in muscle for a long time after injection” value ([3]; 0.15 mmol/kg i.v.) was “relatively little enhancement in muscle” and the “T1 and T2* contrast” value ([3]; 0.15 mmol/kg i.v., 4.7 Tesla) was “excellent T1 and T2* contrast”. For the same compound, the “relaxivity r1” value [4] was 2.5 ± 0.2 mM⁻¹ s⁻¹, the “level of p-AKT compared to controls” value ([5]; 100 μM) was 2 fold and the “level of p-AKT compared to controls” value ([5]; 250 μM) was 5 fold. The “level of p-AKT compared to controls” value ([5]; 500 μM) was 12 fold and the “vanadyl concentration in tumor tissue” value [6] was “remained relatively high”.
With “Bis(acetylamido)oxovanadium(IV) [VO(acac-NH2)2]” the “solubility in aqueous solutions” value [7] was “completely soluble”.
For `O=S(=O)([O-])[O-].[O]=[V+2]` [VOSO4, vanadyl sulfate, reference compound], the “activation of p-ERK (in words)” value [8] was “did not induce measurable activation” and the “activation of p-AKT (in words)” value ([5]; 100, 250 or 500 μM) was “did not induce measurable activation”.
For `Cc1occc(=O)c1[O-].Cc1occc(=O)c1[O-].[O]=[V+2]` [VO(malto)2, Bis(maltolato)oxovanadium(IV)], the “dependence of increase in glucose uptake on compound:serum albumin ratio” value ([1]; data not shown) was “no clear dependence”, the “enhancement of glucose uptake per equivalent of VO2+ compared with VO(acac)2 and VO(OPT)2” value ([1]; data not shown) was “markedly less” and the “glucose uptake (effect in words)” value ([1]; with or without 1 mM serum albumin, data not shown) was “facilitate glucose uptake”.
